Data on three compounds can be found in publication PMC12272882, “Ancestral evolution of oxidase activity in a class of (S)-nicotine and (S)-6-hydroxynicotine-degrading flavoenzymes” (The Journal of Biological Chemistry, 2025).

Like-named read-outs stand apart in the source and are kept apart here.

Assay [1] has as its target T1, Node A (synthetic construct, UniProt Z9LAG0LSP2).
T1 construct: ancestral reconstruction
T1 sequence (Z9LAG0LSP2 1-442): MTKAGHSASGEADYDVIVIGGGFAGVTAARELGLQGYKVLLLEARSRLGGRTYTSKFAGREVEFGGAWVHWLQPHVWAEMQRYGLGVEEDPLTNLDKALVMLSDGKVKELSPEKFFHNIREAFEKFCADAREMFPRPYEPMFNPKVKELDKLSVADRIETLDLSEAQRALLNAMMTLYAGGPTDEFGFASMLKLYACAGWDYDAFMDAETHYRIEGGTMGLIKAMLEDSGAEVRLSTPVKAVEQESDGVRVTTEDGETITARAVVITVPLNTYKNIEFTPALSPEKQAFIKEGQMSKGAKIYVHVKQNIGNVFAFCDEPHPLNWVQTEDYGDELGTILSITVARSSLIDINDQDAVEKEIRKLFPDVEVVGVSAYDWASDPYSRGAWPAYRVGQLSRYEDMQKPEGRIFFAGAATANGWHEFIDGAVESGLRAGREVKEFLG
The experiment in a line: anaerobic stopped-flow flavin reduction at […] nm. It counts as biochemical. Conditions: pH 7.5, 4 °C, no O2.

The target in assay [2] is T2, Node C (synthetic construct, UniProt Z9TTH1JYZ3).
T2 construct: ancestral reconstruction; N-terminal MTKAGHSASGEA peptide added, C-terminal His tag, pET29b, E. coli BL21(DE3); 431 positions
The experiment in a line: absorbance spectrum of purified enzyme. The class given is binding. Conditions: as purified.

In assay [3] the target is T3, Node B (synthetic construct, UniProt Z9QPI4SOH8).
T3 construct: ancestral reconstruction
The assay can be described thus: absorbance spectrum of purified enzyme. It counts as binding. Conditions: as purified.

For assay [4], the target named is T1, Node A. The assay can be described thus: absorbance spectrum of purified enzyme. The class given is binding. Conditions: as purified.
Assay [5] has as its target T4, Node D (synthetic construct, UniProt Z9ZYW4GBP2).
T4 construct: ancestral reconstruction; N-terminal MTKAGHSASGEA peptide (from Node D's own predicted N-terminal region), C-terminal His tag, pET29b, E. coli BL21(DE3); 431 positions
The assay can be described thus: absorbance spectrum of purified enzyme. The settings on record: as purified. It counts as binding.

In assay [6] the target is T5, NctB (Shinella sp. HZN7, UniProt A0A075BSX9).
T5 construct: synthetic gene in pET29b, C-terminal His tag, E. coli BL21(DE3); FAD holoenzyme
T5 sequence (A0A075BSX9 whole entry): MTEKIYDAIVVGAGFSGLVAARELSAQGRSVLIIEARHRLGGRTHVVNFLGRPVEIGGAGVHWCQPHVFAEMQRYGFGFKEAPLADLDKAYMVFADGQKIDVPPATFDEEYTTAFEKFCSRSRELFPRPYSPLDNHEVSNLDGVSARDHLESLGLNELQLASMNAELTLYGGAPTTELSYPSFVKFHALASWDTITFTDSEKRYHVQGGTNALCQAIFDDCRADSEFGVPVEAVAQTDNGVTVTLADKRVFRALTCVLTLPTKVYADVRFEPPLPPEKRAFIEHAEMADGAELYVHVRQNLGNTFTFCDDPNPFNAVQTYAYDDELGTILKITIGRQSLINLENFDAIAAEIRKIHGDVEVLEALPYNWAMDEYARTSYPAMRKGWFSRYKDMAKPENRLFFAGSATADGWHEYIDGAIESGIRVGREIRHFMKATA
The experiment in a line: absorbance spectrum of purified enzyme. It counts as binding. The settings on record: as purified.

Assay [7] relates to Node D. The settings on record: pH 7.5, 4 °C, no O2; binding to oxidized enzyme; biphasic.
Target sequence in this assay (DOC12272882_5 1-447 A90V): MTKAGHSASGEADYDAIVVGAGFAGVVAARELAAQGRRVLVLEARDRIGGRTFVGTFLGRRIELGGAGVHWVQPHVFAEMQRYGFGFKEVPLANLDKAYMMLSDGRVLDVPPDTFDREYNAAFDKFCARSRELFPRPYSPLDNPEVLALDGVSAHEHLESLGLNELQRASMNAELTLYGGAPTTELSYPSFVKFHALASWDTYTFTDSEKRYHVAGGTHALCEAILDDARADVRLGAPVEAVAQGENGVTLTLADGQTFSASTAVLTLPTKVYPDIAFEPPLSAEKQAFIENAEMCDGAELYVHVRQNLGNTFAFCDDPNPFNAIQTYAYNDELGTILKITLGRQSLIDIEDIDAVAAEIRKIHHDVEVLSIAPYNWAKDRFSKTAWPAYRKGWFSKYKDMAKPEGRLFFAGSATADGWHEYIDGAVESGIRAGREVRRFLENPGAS
The test system of assay [8] is Node D. The settings on record: pH 7.5, 4 °C, no O2; binding to oxidized enzyme; biphasic. This is another data set of the same source.
Target sequence in this assay (DOC12272882_5 1-447 E300T): as the sequence (DOC12272882_5 1-447 A90V) above, with V90A, E300T counted along it
Assay [9] has as its system Node D. Conditions: pH 7.5, 4 °C, no O2; binding to oxidized enzyme; biphasic. This is another data set of the same source.
Target sequence in this assay (DOC12272882_5 1-447 M100V): as the sequence (DOC12272882_5 1-447 A90V) above, with V90A, M100V counted along it

As to `CN1CCC[C@H]1c1cccnc1` [(S)-nicotine], the “anaerobic stopped-flow flavin reduction at 450 nm” value in [1] is “Node A reacted poorly with both nicotine and 6OHN”.
Consider `Cc1cc2nc3c(=O)[nH]c(=O)nc-3n(C[C@H](O)[C@H](O)[C@H](O)COP(=O)(O)OP(=O)(O)OC[C@H]3O[C@@H](n4cnc5c(N)ncnc54)[C@H](O)[C@@H]3O)c2cc1C` [FAD, flavin adenine dinucleotide], for which the “absorbance spectrum of purified enzyme” value is “All ASR constructs purified with FAD bound” in assay [2]; “All ASR constructs purified with FAD bound” in assay [3]; “All ASR constructs purified with FAD bound” in assay [4]; “All ASR constructs purified with FAD bound” in assay [5]; “all of the ASR enzymes and NctB have typical spectra of oxidized FAD” in assay [6].
As for `CN1CCC[C@H]1c1ccc(O)nc1` [6OHN, (S)-6-hydroxynicotine], in [1], the “anaerobic stopped-flow flavin reduction at 450 nm” value is “Node A reacted poorly with both nicotine and 6OHN”. For the same compound, the Kd entry in assay [7], in assay [8] and in assay [9] was “All three mutants were capable of reacting with 6OHN” each time.
